Here are results for two compounds from patent USRE38132E1, “Phenylpyrrolidines, phenylimidazolidines,3-phenyl-1,3-oxizolidines and 3-phenyl-1,3-thiazolidines and their use in the treatment of inflammatory disease” (Boehringer Ingelheim Pharmaceuticals, Inc., priority 1997, dated 2003).

For data set [1], the system named is allogeneic cell transplant response, popliteal lymph node. Description: In vivo allogeneic cell transplant model (popliteal lymph node weight). As to conditions: Mus musculus, po; mice, per os, dose at which 50% inhibition is observed; read-out: Allogeneic Cell Transplantation Assay ACT ED50. The text has this: In vivo: Allogeneic Cell Transplant Model Purpose of Assay: The ability of cells to recognize other cells from self or from another genetically different individual (non-self) is an important property in maintaining the integrity of tissue and organ structure. The allogeneic cell transplant response is an important model for studies of transplant rejection and immunocompetence. This T-cell-mediated immune response can be induced in adult mice by the injection of lymphocytes from a histoincompatible mouse strain into the footpad . This response is characterized by T-cell proliferation which is limited to the popliteal lymph node that receives drainage from the injected footpad area. No in vitro system can completely duplicate this in vivo response. Thus, this animal model can be used to assess the ability of a test compound to suppress transplant rejection. Description of Assay Protocol: Experiments are conducted using male or female mice (20-26 grams). Any histoincompatible mouse strains suffice for donor and recipient populations. Typically DBA mice are used as donors and […] mice are used as recipients. A minimum of 1 week stabilization and conditioning period is required before use during which time the animals are maintained in accordance with the Animal Resource Center S.O.P. Each study utilizes 36 recipient mice divided into groups of 6. The tests last approximately four days. Donor mice are sacrificed by CO2 asphyxiation and spleens are removed and made into a cell suspension. The cells (1.0·10^7/metatarsal in 0.05 mL) are injected intra dermal (according to standard protocol) into the dorsal metatarsal skin of recipient mice. Four days later, the animals are sacrificed by CO2 asphyxiation and the popliteal nodes are removed and weighed. Groups of mice receiving putative immunosuppressive agents are dosed subcutaneously, intraperitoneally or orally one hour prior to cell injection and daily thereafter according to standard protocol. Student's T-test was used to determine significant differences between popliteal lymph nodes of groups of untreated mice and those mice treated with putative immunosuppressive agents (see: Kroczek, R. A.; Black, C. D. V.; Barbet, […]. Immunology, 1987, 139, 3597). Data are reported as the dose at which 50% inhibition is observed and the manner in which the compound was administered. In Table 23, the following legends are applicable: ^and=not determined. ^bpercent inhibition at 160 μg/mL. ^cno inhibition observed up to highest dose. Exact quantification not always possible due to intrinsic toxicity of compound (see MTT result). ^[…] inhibition (concentration in μM ). ^eapproximated from incomplete dose-response curve. ^fnot determined; compound is a synthesis intermediate.

Data set [2] relates to human MLR, peripheral blood mononuclear cells. Description: Inhibition of the mixed lymphocyte reaction (MLR), tritiated thymidine uptake. The format is cell-based. Further details: key: Data are reported as “+” or “−” at a given concentration (in μM); Data are reported as “+” or “−” at a given concentration (in μM). As to the method:
Assay to Determine Inhibition the Mixed Lymphocyte Reaction
As discussed above, ICAM-1 is necessary for effective cellular interactions during an immune response mediated through LFA-1-dependent cell adhesion. When lymphocytes from two unrelated individuals are cultured together, blast transformation and cell proliferation of the lymphocytes are observed. This response is known as a mixed lymphocyte reaction (MLR) and is analogous to the response of lymphocytes to the 10 addition of antigens or mitogens (Immunology: The Science of Self-Nonself Discrimination; Klein, J., Ed.; John Wiley & Sons: NY, 1982, pp 453-458).
This assay protocol is used to determine the effect of a test compound on the human MLR.
Description of Assay Protocol:
Peripheral blood is obtained from normal, healthy donors by venipuncture. The blood is collected in heparinized tubes and diluted 1:1 at room temperature with Puck's G (GIBCO) balanced salt solution (BSS). The blood mixture (20 mL) is layered over 15 mL of a Ficoll/Hypaque density gradient (Pharmacia, density=1.078, room temperature) and centrifuged at 1000·g for 20 minutes. The interface is then collected and washed 3 times in Puck's G. The cells are counted on a hemocytometer and resuspended in RPMI 1640 culture medium (GIBCO) containing 0.5% of gentamicin, 1 mM L-glutamine (GICO) and 5% heat inactivated (56° C., 30 min) human AB sera (Flow Laboratories) (hereafter referred to as RPMI-culture medium).
Stimulator cells (cells that have been treated with irradiation so that they are unable to proliferate) from a separate donor are cultured with the responder cells at the same concentration. Test compound is added to wells at various concentrations. The total volume per culture is 0.2 mL. Controls include compound vehicle alone (DMSO), responder cells alone, and stimulator cells alone. The culture plates are incubated at 37° C. in a 5% CO2-humidified air atmosphere for 5 days.
The wells are pulsed with 0.5 μCi of tritiated thymidine (^3HT) (New England Nuclear) for the last 18 h of culture. In some cases a two-way MLR can be performed. The protocol is the same except that the second donor's cells are not inactivated by irradiation.
The cells are harvested onto glass fiber filters using an automated multiple sample harvester (Skatron, Norway), and rinsed with water and methanol. The filters are oven dried and counted in Aquasol in a Beckman (LS-3801) liquid scintillation counter.
Data are reported as “+” or “−” at a given concentration (in μM).

In data set [3] the target is T1, interaction of ICAM-1 with the Leukointegrin CD18/CD11a (LFA-1) (Homo sapiens, UniProt P05107+P20701).
T1 construct: endogenous in cells; sICAM-1: made in house, secreted from transfected CHO DUX cells
Put plainly: Assay to determine inhibition of LFA-1 binding to ICAM-1 (immunopurified LFA-1 on plate-bound sICAM-1, ELISA readout). As to conditions: values marked e approximated from incomplete dose-response curve. On the technique in general: In an ELISA, binding on a coated surface is turned into a signal by an enzyme label.

T1 sequence (P20701 26-1170): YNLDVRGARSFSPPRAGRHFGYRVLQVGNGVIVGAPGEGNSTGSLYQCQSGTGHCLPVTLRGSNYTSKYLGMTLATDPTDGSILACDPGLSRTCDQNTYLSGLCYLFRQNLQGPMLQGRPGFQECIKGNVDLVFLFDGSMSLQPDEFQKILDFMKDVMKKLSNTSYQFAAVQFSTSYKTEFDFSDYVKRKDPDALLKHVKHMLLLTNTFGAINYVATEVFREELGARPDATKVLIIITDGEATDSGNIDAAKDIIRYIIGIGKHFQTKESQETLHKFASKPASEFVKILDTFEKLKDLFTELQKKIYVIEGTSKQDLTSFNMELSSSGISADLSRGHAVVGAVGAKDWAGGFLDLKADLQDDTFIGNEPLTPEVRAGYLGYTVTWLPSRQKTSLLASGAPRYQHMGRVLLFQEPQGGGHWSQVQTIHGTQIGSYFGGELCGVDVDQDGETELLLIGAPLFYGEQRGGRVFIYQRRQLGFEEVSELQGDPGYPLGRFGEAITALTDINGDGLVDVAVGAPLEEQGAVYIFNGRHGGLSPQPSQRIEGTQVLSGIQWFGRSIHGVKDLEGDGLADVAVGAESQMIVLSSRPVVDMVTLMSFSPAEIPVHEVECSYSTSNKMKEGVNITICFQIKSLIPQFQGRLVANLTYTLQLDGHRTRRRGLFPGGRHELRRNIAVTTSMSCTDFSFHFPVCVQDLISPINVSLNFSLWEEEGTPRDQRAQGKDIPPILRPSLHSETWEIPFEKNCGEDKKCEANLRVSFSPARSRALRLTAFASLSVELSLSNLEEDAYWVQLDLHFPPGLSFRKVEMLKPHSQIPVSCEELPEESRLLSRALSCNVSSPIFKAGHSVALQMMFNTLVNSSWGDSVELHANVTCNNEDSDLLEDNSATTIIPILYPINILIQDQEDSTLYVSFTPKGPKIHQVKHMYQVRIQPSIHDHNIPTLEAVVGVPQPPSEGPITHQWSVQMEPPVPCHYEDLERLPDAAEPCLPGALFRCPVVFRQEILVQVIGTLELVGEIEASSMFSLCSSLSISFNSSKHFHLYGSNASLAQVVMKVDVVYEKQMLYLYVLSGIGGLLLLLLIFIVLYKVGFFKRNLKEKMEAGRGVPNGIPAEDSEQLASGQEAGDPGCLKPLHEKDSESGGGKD
T1 sequence (P05107 23-769): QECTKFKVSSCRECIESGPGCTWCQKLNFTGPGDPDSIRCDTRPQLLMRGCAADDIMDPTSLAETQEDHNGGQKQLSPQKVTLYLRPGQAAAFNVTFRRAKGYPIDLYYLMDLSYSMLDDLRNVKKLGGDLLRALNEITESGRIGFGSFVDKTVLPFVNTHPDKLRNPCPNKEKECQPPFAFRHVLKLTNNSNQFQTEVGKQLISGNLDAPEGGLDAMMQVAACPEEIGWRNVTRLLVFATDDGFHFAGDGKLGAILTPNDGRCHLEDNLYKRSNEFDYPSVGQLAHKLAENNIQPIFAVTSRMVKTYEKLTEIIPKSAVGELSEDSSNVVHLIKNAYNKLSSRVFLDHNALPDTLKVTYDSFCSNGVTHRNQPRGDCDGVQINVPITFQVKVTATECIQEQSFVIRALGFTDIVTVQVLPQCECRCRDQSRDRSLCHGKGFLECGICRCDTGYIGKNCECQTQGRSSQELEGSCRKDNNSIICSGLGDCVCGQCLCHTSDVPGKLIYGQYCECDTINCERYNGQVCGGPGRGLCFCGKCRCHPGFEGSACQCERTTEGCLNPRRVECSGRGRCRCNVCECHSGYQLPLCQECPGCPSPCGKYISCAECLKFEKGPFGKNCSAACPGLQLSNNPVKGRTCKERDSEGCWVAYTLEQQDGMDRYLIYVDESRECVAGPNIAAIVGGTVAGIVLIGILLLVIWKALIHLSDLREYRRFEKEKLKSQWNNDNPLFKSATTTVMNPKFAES

Turning to `C[C@]1(Cc2ccc(Br)cc2)NC(=O)N(c2cc(Cl)cc(Cl)c2)C1=O` [Example 29], the “Cellular Toxicity Assay MTT LD50” value in the data set with SKW3 cells was in the range of 63 to 125 µM. In data set [1], the ED50 was about 60 mg/kg. Besides, in data set [2] (at 50 μM), the “Mixed Lymphocyte Reaction MLR +/−” value is “+(50)”.

Consider `CC(=O)N1C(=O)N(c2cc(Cl)cc(Cl)c2)C(=O)[C@@]1(C)Cc1ccc(Br)cc1` [Example 102], for which the “Cellular Toxicity Assay MTT LD50” value in the data set on SKW3 cells was over 400 µM. For the same compound, the ED50 in data set [1] is about 25 mg/kg. In addition, the “Mixed Lymphocyte Reaction MLR +/−” value in data set [2] (at 25 μM) is recorded as “+(25)”. The dissociation constant (Kd) in data set [3] is 60 nM.

The ED50 is the midpoint of the dose-response relation. The term Kd denotes the constant that tells how readily two partners part at equilibrium.
